In patent US10080811B2, “Diagnostic marker compounds and their use” (University of Leeds, priority 2012, dated 2018):

Tests used:
[1] = system: C57BL/6J mice; conditions: IP injection
Method: After 24 hours mice were perfused transcardially with 0.9% saline followed by 4% paraformaldehyde. Brains, arteries, heart, liver kidneys were removed, post-fixed and […] sections were cut on a vibratome (Leica Microsystems, Germany) The sections were mounted on slides, dried at 4° C., cover slipped using vectashield mounting medium and examined using a Zeiss laser scanning confocal microscope (LSM 510).

[2] = system: SH-SY5Y cells; conditions: 500 μM H2O2 24 hours before, 24 hours exposure
Method: Cytoprotective effect tests were performed on SH-SY5Y cells that had previously been exposed to hydrogen peroxide for 24 hours.

| Compound | blood brain barrier passage (labelling in the brain tissue) [1] | highest number of fluorescent peaks, brain tissue ([1]; 100 μM solution, 24 hours) [peaks per 100 μm^2 area] | highest number of fluorescent peaks, heart tissue ([1]; 100 μM solution, 24 hours) [peaks in a 100 μm^2 area] | highest number of fluorescent peaks, liver tissue ([1]; 100 μM solution, 24 hours) [peaks in a 100 μm^2 area] | highest number of fluorescent peaks, lung tissue ([1]; 100 μM solution, 24 hours) [peaks in a 100 μm^2 area] | uptake into hepatocytes in liver tissue ([1]; higher magnifications) | cytoprotective potency, comparison of the two nitrates [2] | effect on hydrogen peroxide's cytotoxicity ([2]; n=80) |
| --- | --- | --- | --- | --- | --- | --- | --- | --- |
| O=[N+]([O-])[O-].O=[N+]([O-])[O-].O=[N+]([O-])[O-].[Eu+3] [europium nitrate] | cross the blood brain barrier | ≥ 20 | ≤ 1 | < 10 | ≤ 1 | had entered the hepatocytes | – | – |
| O=[N+]([O-])[O-].O=[N+]([O-])[O-].O=[N+]([O-])[O-].[Ce+3] [cerium nitrate] | – | – | – | – | – | – | more potent antioxidant-based cytoprotective agent compared to europium nitrate | significantly inhibiting hydrogen peroxide's cytotoxicity |
